Data as given in PMC6156138, “Combination of a Latency-Reversing Agent With a Smac Mimetic Minimizes Secondary HIV-1 Infection in vitro” (Frontiers in Microbiology, 2018).
Where two headings read alike, the source gives them in different places.

Experiments:
Format in all cases: cell-based
[1] = test system: ACH-2 cells; experiment: FACS analysis of active caspase-3 expression; conditions: for percentage of active caspase-3 cells: ACH-2 cells, 24 h
Protocol: Intracellular HIV-1 p24 levels and active form of caspase-3 expression were determined as previously described ([Hattori et al., 2009]; [Duro et al., 2010]; [Matsuda et al., 2015]). In brief, ACH-2 cells or U1 cells (2.5 × 10^5 cells/mL) were fixed with 1% paraformaldehyde/phosphate buffered saline (PBS) for 20 min and were permeabilized with Flow Cytometry Perm Buffer (TONBO biosciences, San Diego, CA, United States). After incubation on ice for 5 min, the cells were stained with anti-HIV-1 p24 (24-4)-FITC mAb (Santa Cruz Biotechnology, Dallas, TX, United States) and/or with Alexa Fluor 647-conjugated anti-active caspase-3 mAb (C92-605) (BD Pharmingen, San Diego, CA, United States) for 30 min on ice. Cells were then analyzed on a BD FACSVerse flow cytometer (BD Biosciences, Franklin Lakes, NJ, United States). The corrected data were analyzed with FlowJo software (Tree Star, San Carlos, CA, United States).
FIGURE 3 (A,B) ACH-2 (A) and U1 cells (B) were treated with birinapant (50 nM), PEP005 (5 nM), birinapant plus PEP005, TNF-α (10 ng/ml), and intracellular expression of caspase-3 was examined after 24 h of incubation. The percentage of active caspase-3 cells was determined by comparison with unstimulated cells. (C) ACH-2 cells after 24 h of PEP005 (0∼50 nM) treatment with or without birinapant (50 nM) were separately analyzed in p24^+ and p24^- populations for caspase-3 expression.
FIGURE 4 (A) ACH-2 cells were exposed to birinapant (50 nM), PEP005 (5 nM), birinapant plus PEP005, TNF-α (10 ng/ml), or birinapant plus TNF-α treatment and were cultured for 5 days, and data (FACS analysis) were collected at days 1, 3, and 5. (B) Expression of active caspase-3 in p24^+/^- populations is shown. (C) Changes in the supernatant p24 antigen levels in the presence of drug(s) on days 1, 3, and 5. […]

[2] = test system: primary CD4+ T-cells from HIV-1-infected patients; experiment: HIV-1 reactivation in primary CD4+ T-cells from HIV-1 patients (HIV-1 mRNA); conditions: primary CD4+ T-cells from HIV-1-infected patients under cART, 24 h; PEP005 5 nM, birinapant 50 nM
Source text: Peripheral blood samples were collected from HIV-1-infected patients who had been receiving combination antiretroviral therapy (cART) for at least 6 years. All subjects maintained lower viral load (<20 copies/ml) (except for occasional blips) during therapy. CD4^+ T-cell counts in peripheral blood samples ranged from 464–807 cells/mm^3 (average 601 cells/mm^3), and plasma viral loads were <41.3 copies/ml as measured by qPCR (Roche COBAS AmpliPrep/COBAS TaqMan HIV-1 Test version 2.0) at the time of study enrollment. Written informed consent was obtained from all the subjects. […] The total RNA was extracted, cDNA was synthesized, and quantitative real-time PCR analyses for studying the expression of intracellular HIV-1 RNA were carried out as shown above. The HIV RNA copies were calculated using a standard curve obtained from serially diluted HIV-1 plasmid, the normalized values [HIV RNA copies/input RNA (ng)] with a drug were compared with that without a drug, and the relative increase in HIV-1 RNA levels in the presence of a drug was determined.
FIGURE 5 (A) Changes in the HIV-1 mRNA expression on primary CD4^+ T-cells from HIV-1-infected patients in the presence of PEP005 and/or birinapant. […] Statistical significance was determined using Mann-Whitney U test, where P-value < 0.05 was considered to be significant.

[3] = Toxicity on PHA-stimulated PBMCs from healthy donor (WST-8 assay); conditions: human
Protocol: Table S1. CC50 values on PHA-stimulated PBMCs from healthy donor
PBMCs (2 x 10^6 cells/ml) were treated with birinapant or PEP005 and cultured for 3days. Cell viability was
Table S2. Toxicity of PEP005 and birinapant in combination
Agent (concentration) % replication
PEP005 (1 µM) + birinapant (1 µM) 65.5 %
PBMCs (2 x 10^6 cells/ml) were treated with birinapant (10 nM - 10 µM) and/or PEP005 (10 nM - 100 µM)
and cultured for 3 days. Cell viability was measured by WST-8 assay.

[4] = birinapant 50 nM, PEP005 5 nM, TNF-α 10 ng/ml

SMILES | percentage of active caspase-3 cells [1, 4] [%] | HIV-1 mRNA expression [2] | CC50 at 3 days [3] [µM] | Active caspase-3 ([1]; ACH-2, 24 h, p24 (+) cells, Birinapant (-), PEP005 50nM) [%] | Active caspase-3 ([1]; ACH-2, 24 h, p24 (-) cells, Birinapant (-), PEP005 50nM) [%] | Active caspase-3 ([1]; ACH-2, Day 5, p24 (+) cells, birinapant 50 nM, PEP005 5 nM, TNF-α 10 ng/ml) [%] | CC50 at 3 days ([3]; PHA-stimulated PBMCs from healthy donor, 3 days, WST-8 assay, read-out: CC50 (µM) ± SD) [µM]
CC[C@H](NC(=O)[C@H](C)NC)C(=O)N1C[C@@H](O)C[C@H]1Cc1c(-c2[nH]c3cc(F)ccc3c2C[C@@H]2C[C@H](O)CN2C(=O)[C@H](CC)NC(=O)[C@H](C)NC)[nH]c2cc(F)ccc12 [Birinapant] | 2.96 | failed to change the HIV-1 mRNA expression in most samples | 10.7 ± 0.2 | – | – | – | –
C/C=C(/C)C(=O)O[C@H]1C(C)=C[C@]23C(=O)[C@@H](C=C(CO)[C@@H](O)[C@]12O)[C@H]1[C@@H](C[C@H]3C)C1(C)C [PEP005, ingenol-3-angelate] | 9.98 | elevated the expression of HIV-1 mRNA | – | 13.0 | 44.7 | ~20.7 | > 100
